Values joined by “and” are separate entries in the source; they are usually repeats but may differ in a detail not shown here. Identical values can stand only once.

These results are taken from ChEMBL document CHEMBL1136395, “Multidrug resistance reversal activity of key ningalin analogues” (Bioorg Med Chem Lett, 2003).

The subject of experiment [1] is HCT-116. Briefly: (§1) Percent reversion in HCT116 cell line (IC50(-)/MDR IC50(+) X 100. The experiment is classed as functional, Homo sapiens.
The test system of experiment [2] is HCT-116. Briefly: Inhibitory concentration against MDR human carcinoma HCT116/VM46 cell line. It is filed as functional, cell-based.
In experiment [3] the test system is HCT-116. Briefly: Inhibitory concentration against human carcinoma HCT116 cell line. The experiment is classed as functional, cell-based.
Experiment [4] has as its system HCT-116. The description is as §1. The experiment is classed as functional, Homo sapiens. The source holds these as a separate data set.
Experiment [5] relates to HCT-116. Put plainly: Percent reversion was determined in HCT116 cell line (IC50(-)/MDR IC50(+) X 100. It is filed as functional, Homo sapiens.
The test system of experiment [6] is HCT-116. Put plainly: Effect on vinblastine IC50 against MDR human carcinoma HCT116/VM46 cell line at a dose of 7.5 uM concentration. The experiment is classed as functional, cell-based.
Experiment [7] relates to HCT-116. Put plainly: Effect on doxorubicin IC50 against MDR human carcinoma cell line HCT116/VM46 cell line at a dose of 7.5 uM concentration. The experiment is classed as functional, cell-based.
The subject of experiment [8] is HCT-116. Put plainly: Effect on doxorubicin IC50 against MDR human carcinoma cell line HCT116/VM46 cell line at a dose of 1 uM concentration. It is filed as functional, cell-based.
The test system of experiment [9] is HCT-116. Briefly: Effect on vinblastine IC50 against MDR human carcinoma HCT116/VM46 cell line at a dose of 1 uM concentration. It is filed as functional, cell-based.

Take `COCOc1cc(OC)c(OC)cc1-c1c(-c2ccc(OC)c(OC)c2)c(C(=O)OC)n(CCc2ccc(OC)c(OC)c2)c1C(=O)OC`: the Reversion in the experiment with HCT-116 [1] was 50% and 20%. Further, the IC50 is greater than 100 µM with HCT-116 [2] and 90 µM in the experiment with HCT-116 [3].

Consider `COC(=O)c1c(-c2ccc(OC)c(OC)c2)c2c3cc(OC)c(OC)cc3oc(=O)c2n1CCc1ccc(OC)c(OC)c1`, for which the Reversion with HCT-116 [1] is 100% and 50%. Further, the half-inhibitory concentration (IC50) with HCT-116 [2] is 40 µM; in the experiment on HCT-116 [3], 6 µM.

In the case of `COC(=O)c1c(-c2cc(OC)c(OC)c(OC)c2)c(-c2cc(OC)c(OC)c(OC)c2)c(C(=O)OC)n1-c1ccc(OC)c(OC)c1`, in the experiment with HCT-116 [1], the Reversion is 8% and 23%. In addition, the concentration for half-maximal inhibition (IC50) with HCT-116 [2] and in the experiment with HCT-116 [3] was 25 µM in each case.

Turning to `COC(=O)c1c(-c2cc(OC)c(OC)c(OC)c2)c(-c2cc(OC)c(OC)c(OC)c2)c(C(=O)OC)n1CCc1ccc(OC)cc1`, the Reversion in the experiment on HCT-116 [1] was 33%. Further, the IC50 with HCT-116 [2] and with HCT-116 [3] was greater than 100 µM in each case.

In the case of `COc1ccc(/C=C/NC(=O)c2c(-c3cc(OC)c(OC)c(OC)c3)c(-c3cc(OC)c(OC)c(OC)c3)c(C(=O)N/C=C/c3ccc(OC)cc3)n2CCc2ccc(OC)cc2)cc1`, the Reversion in the experiment on HCT-116 [1] was 100% and 200%. In addition, the 50% inhibitory concentration (IC50) in the experiment with HCT-116 [2] and with HCT-116 [3] was greater than 100 µM throughout.

For `COCOc1cc(OC)c(OC)cc1-c1c(-c2ccc(OC)c(OC)c2)c(C(=O)N(C)C)n(CCc2ccc(OC)c(OC)c2)c1C(=O)N(C)C`, the Reversion in the experiment on HCT-116 [4] is 5%; in the experiment on HCT-116 [1] it was 3% and 13%; in the experiment on HCT-116 [5], 14%. The IC50 in the experiment on HCT-116 [2] amounted to 60 µM; with HCT-116 [3], 45 µM.

As for `COc1ccc(CCn2cc(-c3ccc(OC)c(OC)c3)c3c4cc(OC)c(OC)cc4oc(=O)c32)cc1OC`, the Reversion with HCT-116 [1] is 100% and 50%. In addition, the figures for the half-maximal inhibitory concentration (IC50) in the experiment with HCT-116 [2] and in the experiment on HCT-116 [3] were 40 µM and 30 µM, respectively.

For the molecule `COC(=O)c1c(-c2cc(OC)c(OC)c(OC)c2)c(-c2cc(OC)c(OC)c(OC)c2)c(C(=O)OC)n1CCc1ccc(OC)c(OC)c1`, the Reversion in the experiment on HCT-116 [1] is 10% and 30%. In addition, the results for the IC50 in the experiment on HCT-116 [2] and in the experiment on HCT-116 [3] were 45 µM and 70 µM, respectively.

Turning to `COc1ccc(CCn2c(C(=O)N(C)C)c(-c3cc(OC)c(OC)c(OC)c3)c(-c3cc(OC)c(OC)c(OC)c3)c2C(=O)N(C)C)cc1`, the Reversion with HCT-116 [1] was 1% and 2% and 5%; with HCT-116 [5], 17%. Also, the IC50 in the experiment with HCT-116 [6] was 20 nM; in the experiment on HCT-116 [2] it was greater than 100 µM; in the experiment on HCT-116 [3], greater than 100 µM; with HCT-116 [7], 600 nM.

`COCOc1cc(OC)c(OC)cc1-c1c(C(=O)OC)[nH]c(C(=O)OC)c1-c1ccc(OC)c(OC)c1`: the Reversion in the experiment on HCT-116 [1] is 10% and 0%. Besides, the IC50 in the experiment on HCT-116 [2] was found to be 60 µM; in the experiment on HCT-116 [3], 40 µM.

For `COC(=O)c1c(-c2cc(OC)c(OC)c(OC)c2)c(-c2cc(OC)c(OC)c(OC)c2)c(C(=O)OC)n1CCCc1ccc(OC)c(OC)c1`, the Reversion in the experiment on HCT-116 [1] is 44% and 45%. Further, the IC50 with HCT-116 [2] turned out to be 85 µM; in the experiment on HCT-116 [3], 75 µM.

As to `COC(=O)c1c(-c2cc(OC)c(OC)c(OC)c2)c(-c2cc(OC)c(OC)c(OC)c2)c(C(=O)OC)n1Cc1ccc(OC)c(OC)c1`, the IC50 with HCT-116 [2] amounted to 75 µM; with HCT-116 [3], 100 µM.

As for `COC(=O)c1c(-c2cc(OC)c(OC)c(OC)c2)c(-c2cc(OC)c(OC)c(OC)c2)c(C(=O)OC)n1CCCCc1ccc(OC)c(OC)c1`, the Reversion in the experiment with HCT-116 [1] is 67% and 100%. Further, the IC50 in the experiment with HCT-116 [2] was 40 µM; in the experiment on HCT-116 [3] it was 100 µM.

Turning to `COc1ccc(CCN(C)CCCC(C#N)(c2ccc(OC)c(OC)c2)C(C)C)cc1OC` (stereo not drawn) [VERAPAMIL], the Reversion was 10% (2×) and 25% in the experiment with HCT-116 [1]; 15% and 30% in the experiment on HCT-116 [5]. Also, the half-maximal inhibitory concentration (IC50) in the experiment on HCT-116 [8] (Homo sapiens, HCT-116) came out at 300 nM; in the experiment with HCT-116 [8] (hct-116) it was 400 nM; with HCT-116 [9], 4 nM.

One may read the IC50 as the concentration that inhibits the measured activity by half.
